Experiments:
[1] = tested on: Swiss-Webster mice on an Fe-deficient diet; assay: Iron depletion-repletion study (blood hemoglobin); format: in vivo; conditions: males, 6.3 mM FeSO4 in control formulation, daily 200 μL gavage, 14 days
Description: To establish the amount of iron needed to steadily replete a mouse, the concentration was determined theoretically to be 3.15 mM in a 200 μL gavage dose, based on daily food intake and iron requirement of a rodent (35 mg/kg Fe). Two additional concentrations were included in this study: 1.575 mM and 6.3 mM, which are half and double the theoretical concentration, respectively. A control group was given 0 mM Fe gavage on chow diet to obtain normal Hb values. The Fe was dissolved in control formulation (Table 3). Three-week-old male and female Swiss-Webster mice were placed on an Fe-deficient diet in wire-overhang cages for two weeks. After two weeks baseline hemoglobin (Hb) was measured. Daily gavage began in the evening for 14 days. An additional trial included FeSO4 and ferrous fumarate at 6.3 mM and 12.6 mM per iron source, along with a control group with 0 mM Fe gavage on control diet (50 ppm Fe).
Three-week-old male and female Swiss-Webster mice were placed on an Fe-deficient diet for two weeks. After two weeks baseline hemoglobin (Hb) was measured and mice were randomized into groups so that average starting Hb values are similar. They were gavaged every evening after a 1.5 hour fast (just before the “active” phase) with a 200 μL volume containing 6.3 mM FeSO4 in control or 4 AA formulations. […] Hemoglobin was measured every three days to track repletion. […]

[2] = tested on: duodenal epithelial organ cultures; assay: Ussing chamber 59Fe flux studies; design: species or system Swiss-Webster mice; conditions: compared to the other single AAs
Description: Ussing chamber technology was utilized to measure Fe flux in the presence of AA formulations. The Ussing chamber was balanced for at least 30 minutes prior to mounting duodenal mouse tissues. Tissues were bathed bilaterally in 10 mL of control or AA-containing buffers, containing 1.5 mM FeSO4.7H2O (“cold” Fe), and were bubbled with a 95% O2 and 5% CO2 gas mixture. Experiments were performed under conditions in which the voltage was clamped to zero, so that there was no net passive diffusion of ions and no driving force for paracellular flux. Duodenal epithelial organ cultures were mounted and equilibrated for approximately 10 minutes and were paired for mucosal-to-serosal and serosal-to-mucosal flux based on similar conductance values. Blank measurements (500 μL) were collected from the “cold” (non-radioactive) side. 15 μCi of ^59Fe (PerkinElmer, catalog #NEZ037500UC) neutralized with N-methyl-D-glucamine (NMDG) was added to each chamber, on either the mucosal or serosal side, depending upon tissue pairing. At 15-minute intervals, 500 μL samples were collected from the “cold” side for 60 minutes, and 500 μL buffer were added back to maintain a fixed volume. […] Radioactivity in the samples was measured using a PerkinElmer gamma counter, and net Fe flux was calculated as Jnet=Jms−Jsm, where Jms is mucosal to serosal flux (absorption) and Jsm is serosal to mucosal flux (secretion). […]

DMT1 = assay: Ligated duodenal loop studies, DMT1 Western blot of BBMV; design: species or system Swiss-Webster mice; conditions: single AA formulation pH 6.5 in duodenal loop, 45 min 37 °C; relative to control (expression set to 1)
Description: Blind loop studies were conducted on 8-10-week-old male Swiss-Webster mice, as they are a commonly used outbred strain. Males were selected for initial screening purposes, but experiments will be repeated in female mice. Mice were sacrificed and duodenal segments (approximately […]) were isolated and flushed with Ringer's buffer. […] After incubation, the luminal liquid was released. […] A standard protocol for isolating BBM protein was performed for Western blot analysis (described below).
Isolation of Brush-Border Membrane Vesicles (BBMV): A light scrape of the duodenal mucosal was placed in 9.9 mL ice-cold lysis buffer with 0.1 mL Halt Protease Inhibitor Cocktail, EDTA-free 100×. Samples were homogenized on ice using an IKA T25 Ultra Turrax device for 2 min. Following homogenization, 500 μL 1 M MgCl2 was added and the sample was rotated at 4° C. for 10 minutes. Samples were then centrifuged at 10,000 rpm for 25 min using a JA-12 rotor in a Beckman-Coulter ultracentrifuge. The supernatant was transferred to new round-bottom tubes and centrifuged again at 19,000 rpm for 40 minutes using a JA-17 rotor. The remaining pellet after the second centrifugation step contained the BBMVs. The pellet was dissolved in 50 μL Ringer's buffer with protease inhibitor at a final concentration of 1×.
Sodium Dodecyl Sulfate-Polyacrylamide Gel Electrophoresis (SDS-PAGE): Protein samples, each containing 30 μg protein, were mixed with 4× Laemmli buffer and 1 M dithiolthreitol (ratio of buffer to DTT was 20:1) and incubated at 37° C. for 30 minutes. 30 μg of protein was then loaded into each lane of 8% polyacrylamide gels. SDS-PAGE was run at 90 V for 30 minutes and increased to 120 V for the duration of the electrophoresis.
Western Blot: Proteins in gels were transferred to PVDF membranes at 60 V for two hours. […] Membranes were then incubated with DMT1 primary antibody (courtesy of François Canonne-Hergaux, French Institute of Health and Medical Research, Bordeaux, France) at a 1:2000 dilution in Odyssey blocking buffer at 4° C. for at least 16 hours. Blots were rinsed with TBST for 15 minutes under fast agitation for a total of three washes. […] Blots were again rinsed with TBST for 15 minutes under fast agitation for a total of three washes. Blots were subsequently imaged and protein band signals were quantified with a Licor Odyssey CLx immunofluorescent instrument. Protein band intensities were then normalized to total protein of each lane stained with Coomassie (Gel Analyzer software) and all data was normalized to respective control lanes on the same blot.

| Structure (SMILES) | relative DMT1 protein expression on the BBM (DMT1) | also measured |
| --- | --- | --- |
| O.O.O.O.O.O.O.O=S(=O)([O-])[O-].[Fe+2] [FeSO4] | – | blood hemoglobin during repletion [1]: steady increase |
| NC(=O)CC[C@H](N)C(=O)O [glutamine] | – | net Fe flux with individual AAs from the 4 AA formulation [2]: lowest flux |
| NCCCC[C@H](N)C(=O)O [lysine] | lowest relative DMT1 protein expression | – |
| N[C@@H](CO)C(=O)O [serine] | lowest relative DMT1 protein expression | – |
| C[C@@H](O)[C@H](N)C(=O)O [threonine] | lowest relative DMT1 protein expression | – |
| N[C@@H](Cc1ccc(O)cc1)C(=O)O [tyrosine] | lowest relative DMT1 protein expression | – |
| CC(C)[C@H](N)C(=O)O [valine] | lowest relative DMT1 protein expression | – |

Source: patent publication US20220016063A1, “COMPOSITIONS THAT ENHANCE IRON ABSORPTION AND METHODS OF USE THEREOF” (UNIVERSITY OF FLORDIA RESEARCH FOUNDATION, INCORPORATED, priority 2018, published 2022)
